Measurements as given in paper PMC8698454, “Anti-Colonization Effect of Au Surfaces with Self-Assembled Molecular Monolayers Functionalized with Antimicrobial Peptides on S. epidermidis” (Antibiotics, 2021).
Converted amounts (≈) assume the structure as drawn. Read-outs that look alike come from different tables or passages of the source. Where a SMILES comes first, the peptide text is derived from it. [ ]: non-standard residue; d: D form. Bip = N[C@@H](Cc1ccc(-c2ccccc2)cc1)C(=O)O; Lys(N3) = [N-]=[N+]=NCCCC[C@H](N)C(=O)O

Tests used:
Assay type in all cases: cell-based
[1] = system: Escherichia coli ATCC 25922; settings: for Antimicrobial Activity (MIC) E. coli: ATCC 25922; for MIC E. coli ATCC 25922: Table S3
Experimental: (§1) The minimal inhibitory concentration (MIC) of peptides 1a, 1b, 2a, and 2b were determined by broth microdilution according to the Clinical Laboratory Standard Institute (CLSI) method […]-A9. The MICs of the peptides 1c, 1d, 2c, and 2d were determined by broth dilution according to the European Committee for Antimicrobial Susceptibility Testing (EUCAST). Final concentrations of 0.5-256 μg/mL were tested against a panel of reference bacteria-S. aureus (ATCC 9144), S. epidermidis (1457), E. coli (ATCC 25922), and P. aeruginosa (ATCC 27853). Each strain was tested in biological triplicate. The MIC values were defined as the lowest concentration of the peptides resulting in no visual growth.

[2] = system: Pseudomonas aeruginosa ATCC 27853; settings: for Antimicrobial Activity (MIC) P. aeruginosa: ATCC 27853; for MIC P. aeruginosa ATCC 27853: Table S3
Experimental: as §1

[3] = system: Staphylococcus aureus ATCC 9144; settings: for Antimicrobial Activity (MIC) S. aureus: ATCC 9144; for MIC S. aureus ATCC 9144: Table S3
Experimental: as §1

[4] = system: Staphylococcus epidermidis 1457; settings: for Antimicrobial Activity (MIC) S. epidermidis: 1457; for MIC S. epidermidis 1457: Table S3
Experimental: as §1

[5] = technical replicate 1, biological replicate BR1
[6] = technical replicate 1, biological replicate BR2
[7] = technical replicate 1, biological replicate BR3
[8] = technical replicate 2, biological replicate BR1
[9] = technical replicate 2, biological replicate BR2
[10] = technical replicate 2, biological replicate BR3
[11] = technical replicate 3, biological replicate BR1
[12] = technical replicate 3, biological replicate BR2
[13] = technical replicate 3, biological replicate BR3

Row | Antimicrobial Activity (MIC) E. coli [1] [µg/mL] | MIC E. coli ATCC 25922 [1, 5] [µg/mL] | MIC E. coli ATCC 25922 [1, 6] [µg/mL] | MIC E. coli ATCC 25922 [1, 7] [µg/mL] | MIC E. coli ATCC 25922 [1, 8] [µg/mL] | MIC E. coli ATCC 25922 [1, 9] [µg/mL] | MIC E. coli ATCC 25922 [1, 10] [µg/mL] | MIC E. coli ATCC 25922 [1, 11] [µg/mL] | MIC E. coli ATCC 25922 [1, 12] [µg/mL] | MIC E. coli ATCC 25922 [1, 13] [µg/mL] | Antimicrobial Activity (MIC) P. aeruginosa [2] [µg/mL] | MIC P. aeruginosa ATCC 27853 [2, 5] [µg/mL] | MIC P. aeruginosa ATCC 27853 [2, 6] [µg/mL] | MIC P. aeruginosa ATCC 27853 [2, 7] [µg/mL] | MIC P. aeruginosa ATCC 27853 [2, 8] [µg/mL] | MIC P. aeruginosa ATCC 27853 [2, 9] [µg/mL] | MIC P. aeruginosa ATCC 27853 [2, 10] [µg/mL] | MIC P. aeruginosa ATCC 27853 [2, 11] [µg/mL] | MIC P. aeruginosa ATCC 27853 [2, 12] [µg/mL] | MIC P. aeruginosa ATCC 27853 [2, 13] [µg/mL] | Structure (SMILES) | also measured
1 | 8 | 8 (≈ 7.43 µM) | 8 (≈ 7.43 µM) | 16 (≈ 14.9 µM) | 8 (≈ 7.43 µM) | 8 (≈ 7.43 µM) | 16 (≈ 14.9 µM) | 8 (≈ 7.43 µM) | 16 (≈ 14.9 µM) | 8 (≈ 7.43 µM) | 16 | 8 (≈ 7.43 µM) | 8 (≈ 7.43 µM) | 16 (≈ 14.9 µM) | 16 (≈ 14.9 µM) | 16 (≈ 14.9 µM) | 16 (≈ 14.9 µM) | 16 (≈ 14.9 µM) | 8 (≈ 7.43 µM) | 16 (≈ 14.9 µM) | [N-]=[N+]=NCCCC[C@H](NC(=O)[C@H](Cc1ccccc1)NC(=O)[C@H](CCCNC(=N)N)NC(=O)[C@H](Cc1ccc(-c2ccccc2)cc1)NC(=O)[C@H](Cc1ccc(-c2ccccc2)cc1)NC(=O)[C@@H](N)CCCNC(=N)N)C(N)=O [2c] (H-R[Bip][Bip]RF[Lys(N3)]-NH2) | Antimicrobial Activity (MIC) S. aureus [3]: 8 µg/mL; MIC S. aureus ATCC 9144 [3, 5]: 8 µg/mL (≈ 7.43 µM); MIC S. aureus ATCC 9144 [3, 6]: 4 µg/mL (≈ 3.71 µM); MIC S. aureus ATCC 9144 [3, 7]: 8 µg/mL (≈ 7.43 µM); MIC S. aureus ATCC 9144 [3, 8]: 8 µg/mL (≈ 7.43 µM); MIC S. aureus ATCC 9144 [3, 9]: 8 µg/mL (≈ 7.43 µM); MIC S. aureus ATCC 9144 [3, 10]: 8 µg/mL (≈ 7.43 µM); MIC S. aureus ATCC 9144 [3, 11]: 8 µg/mL (≈ 7.43 µM); MIC S. aureus ATCC 9144 [3, 12]: 4 µg/mL (≈ 3.71 µM); MIC S. aureus ATCC 9144 [3, 13]: 8 µg/mL (≈ 7.43 µM); Antimicrobial Activity (MIC) S. epidermidis [4]: 4 µg/mL; MIC S. epidermidis 1457 [4, 5]: 8 µg/mL (≈ 7.43 µM); MIC S. epidermidis 1457 [4, 6]: 4 µg/mL (≈ 3.71 µM); MIC S. epidermidis 1457 [4, 7]: 8 µg/mL (≈ 7.43 µM); MIC S. epidermidis 1457 [4, 8]: 4 µg/mL (≈ 3.71 µM); MIC S. epidermidis 1457 [4, 9]: 4 µg/mL (≈ 3.71 µM); MIC S. epidermidis 1457 [4, 10]: 8 µg/mL (≈ 7.43 µM); MIC S. epidermidis 1457 [4, 11]: 4 µg/mL (≈ 3.71 µM); MIC S. epidermidis 1457 [4, 12]: 4 µg/mL (≈ 3.71 µM); MIC S. epidermidis 1457 [4, 13]: 8 µg/mL (≈ 7.43 µM)
2 | 64 | 64 (≈ 60.4 µM) | 64 (≈ 60.4 µM) | 64 (≈ 60.4 µM) | 64 (≈ 60.4 µM) | 64 (≈ 60.4 µM) | 32 (≈ 30.2 µM) | 64 (≈ 60.4 µM) | 64 (≈ 60.4 µM) | 32 (≈ 30.2 µM) | 256 | 256 (≈ 241 µM) | 256 (≈ 241 µM) | 256 (≈ 241 µM) | 256 (≈ 241 µM) | 256 (≈ 241 µM) | 256 (≈ 241 µM) | 256 (≈ 241 µM) | 256 (≈ 241 µM) | 256 (≈ 241 µM) | [N-]=[N+]=NCCCC[C@@H]1NC(=O)[C@H](Cc2ccccc2)NC(=O)[C@H](CCCNC(=N)N)NC(=O)[C@H](Cc2ccc(-c3ccccc3)cc2)NC(=O)[C@H](Cc2ccc(-c3ccccc3)cc2)NC(=O)[C@H](CCCNC(=N)N)NC1=O [2d] (cyclo(R[Bip][Bip]RF[Lys(N3)])) | Antimicrobial Activity (MIC) S. aureus [3]: 4 µg/mL; MIC S. aureus ATCC 9144 [3, 5]: 8 µg/mL (≈ 7.55 µM); MIC S. aureus ATCC 9144 [3, 6]: 4 µg/mL (≈ 3.77 µM); MIC S. aureus ATCC 9144 [3, 7]: 4 µg/mL (≈ 3.77 µM); MIC S. aureus ATCC 9144 [3, 8]: 4 µg/mL (≈ 3.77 µM); MIC S. aureus ATCC 9144 [3, 9]: 4 µg/mL (≈ 3.77 µM); MIC S. aureus ATCC 9144 [3, 10]: 8 µg/mL (≈ 7.55 µM); MIC S. aureus ATCC 9144 [3, 11]: 4 µg/mL (≈ 3.77 µM); MIC S. aureus ATCC 9144 [3, 12]: 4 µg/mL (≈ 3.77 µM); MIC S. aureus ATCC 9144 [3, 13]: 4 µg/mL (≈ 3.77 µM); Antimicrobial Activity (MIC) S. epidermidis [4]: 2 µg/mL; MIC S. epidermidis 1457 [4, 5]: 4 µg/mL (≈ 3.77 µM); MIC S. epidermidis 1457 [4, 6]: 2 µg/mL (≈ 1.89 µM); MIC S. epidermidis 1457 [4, 7]: 2 µg/mL (≈ 1.89 µM); MIC S. epidermidis 1457 [4, 8]: 2 µg/mL (≈ 1.89 µM); MIC S. epidermidis 1457 [4, 9]: 2 µg/mL (≈ 1.89 µM); MIC S. epidermidis 1457 [4, 10]: 2 µg/mL (≈ 1.89 µM); MIC S. epidermidis 1457 [4, 11]: 2 µg/mL (≈ 1.89 µM); MIC S. epidermidis 1457 [4, 12]: 2 µg/mL (≈ 1.89 µM); MIC S. epidermidis 1457 [4, 13]: 2 µg/mL (≈ 1.89 µM)
